Experimental data taken from ChEMBL document CHEMBL5029169, “Discovery and optimization of covalent EGFR T790M/L858R mutant inhibitors” (Bioorg Med Chem Lett, 2021).
Calls of active or inactive are those of the source. No cut-off for these calls is given here.

Assays:
[1] = molecular target: Cyclin-dependent kinase 1/cyclin B1 (Homo sapiens) (UniProt P06493+P14635); experiment: Inhibition of cdk1/Cyclin B (unknown origin) at 1 uM measured after 1 hr relative to control; assay type: protein-complex assay
[2] = molecular target: Dual specificity mitogen-activated protein kinase kinase 1 (Homo sapiens) (UniProt Q02750); experiment: Inhibition of MAP2K1 (unknown origin) at 1 uM measured after 1 hr relative to control
[3] = molecular target: Insulin-like growth factor 1 receptor (Homo sapiens) (UniProt P08069); experiment: Inhibition of IGF1R (unknown origin) at 1 uM measured after 1 hr relative to control
[4] = molecular target: Glycogen synthase kinase-3 beta (Homo sapiens) (UniProt P49841); experiment: Inhibition of GSK3B (unknown origin) at 1 uM measured after 1 hr relative to control
[5] = molecular target: Serine/threonine-protein kinase PLK2 (Homo sapiens) (UniProt Q9NYY3); experiment: Inhibition of PLK2 (unknown origin) at 1 uM measured after 1 hr relative to control
[6] = Oral bioavailability in mouse; assay type: ADME, organism-based; conditions: in vivo
[7] = molecular target: Serine/threonine-protein kinase Chk2 (Homo sapiens) (UniProt O96017); experiment: Inhibition of CHEK2 (unknown origin) at 1 uM measured after 1 hr relative to control
[8] = molecular target: Mitogen-activated protein kinase 3 (Homo sapiens) (UniProt P27361); experiment: Inhibition of MAPK3 (unknown origin) at 1 uM measured after 1 hr relative to control
[9] = molecular target: Casein kinase I isoform gamma-2 (Homo sapiens) (UniProt P78368); experiment: Inhibition of CSNK1G2 (unknown origin) at 1 uM measured after 1 hr relative to control
[10] = molecular target: Mitogen-activated protein kinase kinase kinase 9 (Homo sapiens) (UniProt P80192); experiment: Inhibition of MAP3K9 (unknown origin) at 1 uM measured after 1 hr relative to control
[11] = molecular target: T1, Serine/threonine-protein kinase BRSK1 (Homo sapiens) (UniProt Q8TDC3); experiment: Inhibition of BRSK1 (unknown origin) at 1 uM measured after 1 hr relative to control
T1 sequence (whole entry): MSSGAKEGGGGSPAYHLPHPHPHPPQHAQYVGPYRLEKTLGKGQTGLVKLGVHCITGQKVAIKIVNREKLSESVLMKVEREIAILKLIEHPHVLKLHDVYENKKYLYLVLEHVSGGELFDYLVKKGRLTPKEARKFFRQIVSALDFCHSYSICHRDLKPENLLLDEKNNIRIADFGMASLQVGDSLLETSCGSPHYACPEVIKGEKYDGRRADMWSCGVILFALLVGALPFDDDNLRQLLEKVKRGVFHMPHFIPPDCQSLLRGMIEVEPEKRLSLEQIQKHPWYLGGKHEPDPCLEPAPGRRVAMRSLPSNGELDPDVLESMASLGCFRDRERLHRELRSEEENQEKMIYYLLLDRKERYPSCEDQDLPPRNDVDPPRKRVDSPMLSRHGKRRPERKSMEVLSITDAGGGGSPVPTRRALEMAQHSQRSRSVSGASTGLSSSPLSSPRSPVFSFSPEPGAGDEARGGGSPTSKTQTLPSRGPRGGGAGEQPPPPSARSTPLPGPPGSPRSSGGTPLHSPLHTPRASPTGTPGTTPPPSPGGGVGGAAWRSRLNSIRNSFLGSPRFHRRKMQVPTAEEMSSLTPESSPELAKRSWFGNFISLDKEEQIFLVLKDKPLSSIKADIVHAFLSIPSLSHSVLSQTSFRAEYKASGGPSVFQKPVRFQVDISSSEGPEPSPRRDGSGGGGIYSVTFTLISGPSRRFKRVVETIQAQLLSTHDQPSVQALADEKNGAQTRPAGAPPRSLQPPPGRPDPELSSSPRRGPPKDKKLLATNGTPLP

[12] = Inhibition of EGF-induced phosphorylation of EGFR T790M/L858R double mutant in human NCI-H1975 cells preincubated for 2 hrs followed by EGF stimulation and measured after 10 mins by ELISA; assay type: cell-based
[13] = molecular target: Protein kinase C alpha type (Homo sapiens) (UniProt P17252); experiment: Inhibition of PRKCA (unknown origin) at 1 uM measured after 1 hr relative to control
[14] = molecular target: Mitogen-activated protein kinase 8 (Homo sapiens) (UniProt P45983); experiment: Inhibition of MAPK8 (unknown origin) at 1 uM measured after 1 hr relative to control
[15] = molecular target: Receptor-type tyrosine-protein kinase FLT3 (Homo sapiens) (UniProt P36888); experiment: Inhibition of FLT3 (unknown origin) at 1 uM measured after 1 hr relative to control
[16] = molecular target: Dual specificity tyrosine-phosphorylation-regulated kinase 1A (Homo sapiens) (UniProt Q13627); experiment: Inhibition of DYRK1A (unknown origin) at 1 uM measured after 1 hr relative to control
[17] = molecular target: Mitogen-activated protein kinase kinase kinase kinase 4 (Homo sapiens) (UniProt O95819); experiment: Inhibition of MAP4K4 (unknown origin) at 1 uM measured after 1 hr relative to control
[18] = molecular target: Serine/threonine-protein kinase B-raf (Homo sapiens) (UniProt P15056); experiment: Inhibition of BRAF (unknown origin) at 1 uM measured after 1 hr relative to control
[19] = molecular target: T2, Epidermal growth factor receptor (Homo sapiens, UniProt P00533, L858R/T790M); experiment: (§1) Inhibition of EGF-induced phosphorylation of EGFR T790M/L858R double mutant in human NCI-H1975 cells preincubated for 120 mins followed by EGF stimulation and measured after 10 mins by ELISA; assay type: cell-based
Homo sapiens = organism: Homo sapiens; experiment: as §1, with “Selectivity ratio of EC50 for inhibition of EGF-induced phosphorylation of wild type EGFR in human NCI-H1975 cells to EC50 for inhibition” for “Inhibition”; assay type: cell-based; conditions: time 130.0 min
[20] = molecular target: T3, Epidermal growth factor receptor (Homo sapiens, UniProt P00533); experiment: Inhibition of EGF-induced phosphorylation of wild type EGFR in human NCI-H1975 cells preincubated for 120 mins followed by EGF stimulation and measured after 10 mins by ELISA; assay type: cell-based
[21] = molecular target: T3, Epidermal growth factor receptor; experiment: Inhibition of wild type EGFR (unknown origin) preincubated for 60 mins followed by substrate addition and further incubated for 60 mins in presence of ATP by IMAP-FP assay
[22] = molecular target: T2, Epidermal growth factor receptor; experiment: Inhibition of EGFR T790M/L858R double mutant (unknown origin) preincubated for 60 mins followed by substrate addition and further incubated for 60 mins in presence of ATP by IMAP-FP assay
NCI-H1975 [23] = experiment: Antitumor activity against human NCI-H1975 cells xenografted in mouse model assessed as tumor growth inhibition at 30 mg/kg, po administered bid measured after 11 days relative to control; assay type: functional; conditions: 264 h, time 11 day, read-out: TGI
NCI-H1975 [24] = experiment: Antitumor activity against human NCI-H1975 cells xenografted in mouse model assessed as tumor growth inhibition at 30 mg/kg, po administered qd measured after 11 days; assay type: functional, organism-based; conditions: time 11.0 day
[25] = Toxicity in mouse xenografted with human NCI-H1975 cells assessed as change in body weight at 30 mg/kg, po administered bid measured after 11 days; assay type: organism-based; conditions: in vivo, 264 h, time 11 day

Sequence of Casein kinase I isoform gamma-2 (Homo sapiens) (P78368 whole entry, looked up, canonical isoform): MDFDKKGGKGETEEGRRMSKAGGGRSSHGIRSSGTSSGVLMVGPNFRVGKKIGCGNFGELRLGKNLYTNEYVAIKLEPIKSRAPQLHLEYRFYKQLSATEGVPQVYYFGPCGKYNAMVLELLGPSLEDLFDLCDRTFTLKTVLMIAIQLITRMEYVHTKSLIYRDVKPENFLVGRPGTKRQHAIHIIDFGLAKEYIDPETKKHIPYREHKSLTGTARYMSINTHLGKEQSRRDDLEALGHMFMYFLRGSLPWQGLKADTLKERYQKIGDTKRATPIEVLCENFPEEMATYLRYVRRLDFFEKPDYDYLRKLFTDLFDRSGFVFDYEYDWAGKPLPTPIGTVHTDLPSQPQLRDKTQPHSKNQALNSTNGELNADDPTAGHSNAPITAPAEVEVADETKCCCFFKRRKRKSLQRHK
Sequence of Serine/threonine-protein kinase PLK2 (Homo sapiens) (Q9NYY3 whole entry, looked up): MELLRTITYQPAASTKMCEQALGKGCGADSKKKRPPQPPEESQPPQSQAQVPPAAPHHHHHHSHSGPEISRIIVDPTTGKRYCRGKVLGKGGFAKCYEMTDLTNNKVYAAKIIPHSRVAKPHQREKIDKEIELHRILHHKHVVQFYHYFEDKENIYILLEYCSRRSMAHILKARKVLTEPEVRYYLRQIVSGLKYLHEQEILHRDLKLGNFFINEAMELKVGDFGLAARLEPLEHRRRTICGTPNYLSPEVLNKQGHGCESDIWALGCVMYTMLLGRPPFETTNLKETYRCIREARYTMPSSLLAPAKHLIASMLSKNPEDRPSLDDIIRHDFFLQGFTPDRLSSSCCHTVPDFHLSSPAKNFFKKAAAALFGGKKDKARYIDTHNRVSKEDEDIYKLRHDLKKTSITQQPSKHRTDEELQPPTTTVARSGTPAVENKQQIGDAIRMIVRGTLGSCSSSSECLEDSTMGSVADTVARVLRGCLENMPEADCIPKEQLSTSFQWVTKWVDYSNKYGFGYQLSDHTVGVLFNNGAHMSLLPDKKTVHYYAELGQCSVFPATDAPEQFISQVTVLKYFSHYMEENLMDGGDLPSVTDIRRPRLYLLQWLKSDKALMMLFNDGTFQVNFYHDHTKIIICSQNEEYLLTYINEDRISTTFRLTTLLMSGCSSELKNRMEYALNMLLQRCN
Sequence of Mitogen-activated protein kinase kinase kinase kinase 4 (Homo sapiens) (O95819 2-1239 limits assumed): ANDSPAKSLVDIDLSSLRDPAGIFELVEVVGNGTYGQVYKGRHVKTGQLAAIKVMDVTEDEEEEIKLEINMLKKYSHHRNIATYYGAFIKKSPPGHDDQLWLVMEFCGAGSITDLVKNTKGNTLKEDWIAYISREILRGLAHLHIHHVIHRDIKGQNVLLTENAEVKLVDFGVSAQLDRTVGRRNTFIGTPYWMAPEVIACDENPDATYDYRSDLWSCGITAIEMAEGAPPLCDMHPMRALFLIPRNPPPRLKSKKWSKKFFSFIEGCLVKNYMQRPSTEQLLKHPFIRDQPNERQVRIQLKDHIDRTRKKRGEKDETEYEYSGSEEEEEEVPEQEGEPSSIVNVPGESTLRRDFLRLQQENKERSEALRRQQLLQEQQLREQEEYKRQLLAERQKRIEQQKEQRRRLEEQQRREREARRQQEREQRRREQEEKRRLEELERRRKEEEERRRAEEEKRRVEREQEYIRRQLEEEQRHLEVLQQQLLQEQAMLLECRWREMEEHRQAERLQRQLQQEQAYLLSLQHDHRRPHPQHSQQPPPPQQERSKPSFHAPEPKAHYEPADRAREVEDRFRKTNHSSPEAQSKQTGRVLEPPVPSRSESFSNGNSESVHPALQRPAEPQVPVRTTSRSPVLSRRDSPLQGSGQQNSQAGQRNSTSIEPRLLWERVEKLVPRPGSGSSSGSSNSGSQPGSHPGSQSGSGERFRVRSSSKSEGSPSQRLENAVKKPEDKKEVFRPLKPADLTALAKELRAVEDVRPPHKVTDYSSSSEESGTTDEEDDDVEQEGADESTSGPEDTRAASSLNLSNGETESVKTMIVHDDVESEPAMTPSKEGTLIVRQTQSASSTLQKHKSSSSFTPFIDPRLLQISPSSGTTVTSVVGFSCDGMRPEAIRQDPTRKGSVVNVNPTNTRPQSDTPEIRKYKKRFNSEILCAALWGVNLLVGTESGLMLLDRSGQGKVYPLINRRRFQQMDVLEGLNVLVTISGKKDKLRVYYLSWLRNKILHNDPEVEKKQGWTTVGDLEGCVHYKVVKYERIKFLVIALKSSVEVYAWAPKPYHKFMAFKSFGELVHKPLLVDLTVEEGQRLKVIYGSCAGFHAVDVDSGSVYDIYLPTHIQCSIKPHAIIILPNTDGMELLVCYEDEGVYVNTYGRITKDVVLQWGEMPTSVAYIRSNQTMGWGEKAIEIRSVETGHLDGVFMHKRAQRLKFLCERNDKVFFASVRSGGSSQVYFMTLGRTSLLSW
Sequence of Serine/threonine-protein kinase B-raf (Homo sapiens) (P15056 whole entry): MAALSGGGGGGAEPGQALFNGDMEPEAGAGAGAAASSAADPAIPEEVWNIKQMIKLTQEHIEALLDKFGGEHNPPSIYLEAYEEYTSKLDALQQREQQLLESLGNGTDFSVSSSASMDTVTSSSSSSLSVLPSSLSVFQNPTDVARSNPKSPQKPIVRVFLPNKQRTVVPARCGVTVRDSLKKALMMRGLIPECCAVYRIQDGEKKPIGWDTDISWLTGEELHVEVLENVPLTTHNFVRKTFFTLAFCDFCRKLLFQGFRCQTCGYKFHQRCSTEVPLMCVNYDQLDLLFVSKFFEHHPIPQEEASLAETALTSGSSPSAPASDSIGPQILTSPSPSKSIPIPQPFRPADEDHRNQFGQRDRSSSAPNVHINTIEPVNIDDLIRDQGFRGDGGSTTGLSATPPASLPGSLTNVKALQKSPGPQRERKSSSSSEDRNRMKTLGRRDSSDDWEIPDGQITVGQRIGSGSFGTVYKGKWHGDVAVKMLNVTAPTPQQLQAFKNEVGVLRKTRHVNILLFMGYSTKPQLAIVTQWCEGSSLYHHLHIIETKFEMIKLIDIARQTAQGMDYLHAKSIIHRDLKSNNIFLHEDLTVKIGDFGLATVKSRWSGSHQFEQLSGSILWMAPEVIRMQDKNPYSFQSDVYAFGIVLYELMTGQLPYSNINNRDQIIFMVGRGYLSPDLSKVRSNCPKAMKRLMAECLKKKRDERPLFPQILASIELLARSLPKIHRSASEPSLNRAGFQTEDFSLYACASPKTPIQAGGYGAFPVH
Sequence of Glycogen synthase kinase-3 beta (Homo sapiens) (P49841 whole entry, looked up): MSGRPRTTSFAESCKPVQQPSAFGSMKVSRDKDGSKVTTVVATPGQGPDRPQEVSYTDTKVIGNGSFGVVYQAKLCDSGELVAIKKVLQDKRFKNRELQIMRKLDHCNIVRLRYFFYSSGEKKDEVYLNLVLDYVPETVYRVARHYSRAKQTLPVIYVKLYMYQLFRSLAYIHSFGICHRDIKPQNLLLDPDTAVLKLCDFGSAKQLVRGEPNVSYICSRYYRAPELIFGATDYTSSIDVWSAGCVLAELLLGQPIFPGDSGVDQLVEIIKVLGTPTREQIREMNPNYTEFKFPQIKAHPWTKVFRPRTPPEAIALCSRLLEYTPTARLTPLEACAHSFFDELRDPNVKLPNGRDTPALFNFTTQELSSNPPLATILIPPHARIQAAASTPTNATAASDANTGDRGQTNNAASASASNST
Sequence of Mitogen-activated protein kinase 8 (Homo sapiens) (P45983 whole entry): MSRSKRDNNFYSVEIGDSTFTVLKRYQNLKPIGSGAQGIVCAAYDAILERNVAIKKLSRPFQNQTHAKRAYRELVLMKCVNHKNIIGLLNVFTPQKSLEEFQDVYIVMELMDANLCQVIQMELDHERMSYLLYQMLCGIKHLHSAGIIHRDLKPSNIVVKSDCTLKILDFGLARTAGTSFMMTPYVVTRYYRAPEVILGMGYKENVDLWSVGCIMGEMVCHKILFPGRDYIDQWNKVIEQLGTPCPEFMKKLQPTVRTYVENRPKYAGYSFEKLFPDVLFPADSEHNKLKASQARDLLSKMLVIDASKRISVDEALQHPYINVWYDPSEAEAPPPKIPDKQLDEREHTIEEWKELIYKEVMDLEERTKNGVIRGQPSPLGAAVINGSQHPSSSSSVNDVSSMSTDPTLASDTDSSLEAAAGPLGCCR
Sequence of Dual specificity mitogen-activated protein kinase kinase 1 (Homo sapiens) (Q02750 whole entry): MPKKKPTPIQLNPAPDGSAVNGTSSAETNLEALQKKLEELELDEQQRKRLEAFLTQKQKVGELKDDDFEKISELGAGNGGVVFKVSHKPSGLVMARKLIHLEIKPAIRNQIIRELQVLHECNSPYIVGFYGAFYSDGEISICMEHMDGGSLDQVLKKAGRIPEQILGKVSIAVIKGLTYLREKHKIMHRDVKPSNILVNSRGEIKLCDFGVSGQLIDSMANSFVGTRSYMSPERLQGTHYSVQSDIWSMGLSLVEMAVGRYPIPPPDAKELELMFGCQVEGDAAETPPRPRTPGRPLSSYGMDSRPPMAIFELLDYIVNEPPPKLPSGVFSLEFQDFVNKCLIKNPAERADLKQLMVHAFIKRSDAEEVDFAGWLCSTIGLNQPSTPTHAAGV

| SMILES | inhibition [1] [%] | inhibition [2] [%] | inhibition [3] [%] | inhibition [4] [%] | inhibition [5] [%] | bioavailability [6] [%] | inhibition [7] [%] | inhibition [8] [%] | inhibition [9] [%] | inhibition [10] [%] | inhibition [11] [%] | inhibition [13] [%] | inhibition [14] [%] | inhibition [15] [%] | inhibition [16] [%] | inhibition [17] [%] | inhibition [18] [%] | EC50 [19] [nM] | IC50 [21] [nM] | IC50 [22] [nM] | also measured |
| --- | --- | --- | --- | --- | --- | --- | --- | --- | --- | --- | --- | --- | --- | --- | --- | --- | --- | --- | --- | --- | --- |
| C=CC(=O)Nc1cc(Nc2nccc(-c3cn(C)c4ccccc34)n2)c(OC)cc1N(C)CCN(C)C [OSIMERTINIB] | 5 | 0 | 31 | 12 | 0 | 45 | 0 | 0 | 5 | 71 | 7 | 4 | 0 | 57 | 0 | 78 | 6 | – | – | – | EC50 [12]: 15 nM |
| C=CC(=O)N1CCC2(CC1)CNC(=O)c1cc(-c3ccnc(Nc4ccccc4OC)n3)[nH]c12 | 71 | 72 | 3 | 85 | 79 | 3.2 | 99 | 69 | 81 | 75 | 18 | 30 | 80 | 85 | 73 | 91 | 83 | 40 | 0.4 | 0.9 | Ratio EC50 (Homo sapiens): 7.7; EC50 [20]: 308 nM |
| C=CC(=O)N1CCC2(CC1)CNC(=O)c1cc(-c3ccnc(Nc4ccccc4OC(C)C)n3)[nH]c12 | 8 | 48 | 14 | 88 | 12 | 11 | 100 | 40 | 88 | 38 | 4 | 5 | 50 | 22 | 70 | 32 | 34 | 8.8 | 1.2 | 1.3 | inhibition in vivo at 30 mg/kg (NCI-H1975 [23]): 60%; Ratio EC50 (Homo sapiens): 64; Activity (NCI-H1975 [24]): Active; EC50 [20]: 562 nM; Activity [25]: Non-Toxic |
| C=CC(=O)N1CCC2(CC1)CNC(=O)c1cc(-c3nc(Nc4ccccc4OC)ncc3C)[nH]c12 | 89 | 98 | 69 | 99 | 86 | 87 | 96 | 90 | 92 | 98 | 0 | 61 | 85 | 100 | 98 | 89 | 98 | 12 | 1.4 | 1.2 | Ratio EC50 (Homo sapiens): 14; EC50 [20]: 165 nM |
| C=CC(=O)N1CCC2(CC1)CNC(=O)c1cc(-c3ccnc(-c4cccc(OC)c4)n3)[nH]c12 | – | – | – | – | – | – | – | – | – | – | – | – | – | – | – | – | – | 2550 | 32 | 9.6 | – |
| CC#CC(=O)Nc1cccc(-c2nccc(-c3cc4c([nH]3)C3(CCNCC3)CNC4=O)n2)c1 | – | – | – | – | – | – | – | – | – | – | – | – | – | – | – | – | – | – | – | 499 | – |
| C=CC(=O)N1CCC2(CC1)CNC(=O)c1cc(-c3ccnc(-c4ccc5c(c4)OCO5)n3)[nH]c12 | – | – | – | – | – | – | – | – | – | – | – | – | – | – | – | – | – | – | 43 | 6.5 | – |
| C=CC(=O)N1CCC2(CC1)CNC(=O)c1cc(-c3nc(Nc4ccccc4OC)ncc3Cl)[nH]c12 | – | – | – | – | – | – | – | – | – | – | – | – | – | – | – | – | – | 3.1 | 0.9 | 0.8 | Ratio EC50 (Homo sapiens): 89; EC50 [20]: 277 nM |
| COc1ccccc1Nc1nccc(-c2cc3c([nH]2)C2(CCN(C(=O)C#CN(C)C)CC2)CNC3=O)n1 | – | – | – | – | – | – | – | – | – | – | – | – | – | – | – | – | – | 2180 | 5.3 | 2.8 | – |
| C=CC(=O)N1CCC2(CC1)CNC(=O)c1cc(-c3ccnc(Nc4ccccc4OC)c3)[nH]c12 | 12 | 80 | 0 | 34 | 7 | – | 100 | 81 | 79 | 1 | 18 | 14 | 87 | 16 | 46 | 80 | 75 | > 10000 | 192 | 37 | – |
